Active and inactive are the calls of the source. The calls are words filed in the database; no cut-off is given here.
Experiments:
[1] = system: Human immunodeficiency virus 1; assay: Ratio of IC50 for ENF-resistant HIV1 NL4-3 harboring gp41 N-terminal heptad repeat D36G mutant to IC50 for wild type HIV1 NL4-3; format: functional
[2] = system: Human immunodeficiency virus 1; assay: Ratio of IC50 for ENF-resistant HIV1 NL4-3 harboring gp41 N-terminal heptad repeat I37T mutant to IC50 for wild type HIV1 NL4-3; format: functional
Serum = assay: Metabolic stability in Sprague-Dawley rat serum at 4 mg/kg, ip measured at 0.5 to 4 hrs post dose; format: ADME, organism-based; conditions: in vivo
[3] = molecular target: Envelope glycoprotein gp160 (Human immunodeficiency virus 1) (UniProt Q72502); assay: Binding affinity to HIV1 NL4-3 gp41 N-terminal heptad repeat G36D mutant after 30 mins by CD spectroscopic analysis
[4] = system: Human immunodeficiency virus 1; assay: Ratio of IC50 for ENF-resistant HIV1 NL4-3 harboring gp41 N-terminal heptad repeat Q40H mutant to IC50 for wild type HIV1 NL4-3; format: functional
[5] = molecular target: Envelope glycoprotein gp160 (Human immunodeficiency virus 1) (UniProt Q72502); assay: Binding affinity to HIV1 NL4-3 gp41 N-terminal heptad repeat I37T mutant after 30 mins by CD spectroscopic analysis
[6] = molecular target: Envelope glycoprotein gp160 (Human immunodeficiency virus 1) (UniProt Q72502); assay: Binding affinity to HIV1 NL4-3 gp41 N-terminal heptad repeat V38A/N42T double mutant after 30 mins by CD spectroscopic analysis
[7] = system: Human immunodeficiency virus 1; assay: Antiviral activity against wild type HIV1 NL4-3 infected in human TZM-bl cells assessed as inhibition of viral entry into cells after 48 hrs by single-cycle infection assay; format: functional, organism-based; conditions: Human immunodeficiency virus 1, NL4-3, TZM-bl
[8] = system: Human immunodeficiency virus 1; assay: Ratio of IC50 for ENF-resistant HIV1 NL4-3 harboring gp41 N-terminal heptad repeat V38M mutant to IC50 for wild type HIV1 NL4-3; format: functional
[9] = system: Human immunodeficiency virus 1; assay: Antiviral activity against ENF-resistant HIV1 NL4-3 harboring gp41 N-terminal heptad repeat N43K mutant infected in human TZM-bl cells assessed as inhibition of viral entry into cells after 48 hrs by single-cycle infection assay; format: functional, organism-based
[10] = system: Human immunodeficiency virus 1; assay: Antiviral activity against ENF-resistant HIV1 NL4-3 harboring gp41 N-terminal heptad repeat D36S/V38M double mutant infected in human TZM-bl cells assessed as inhibition of viral entry into cells after 48 hrs by single-cycle infection assay; format: functional, organism-based
[11] = system: Human immunodeficiency virus 1; assay: Ratio of IC50 for ENF-resistant HIV1 NL4-3 harboring gp41 N-terminal heptad repeat V38A mutant to IC50 for wild type HIV1 NL4-3; format: functional
[12] = system: Human immunodeficiency virus 1; assay: Antiviral activity against ENF-resistant HIV1 NL4-3 harboring gp41 N-terminal heptad repeat I37T/N43K double mutant infected in human TZM-bl cells assessed as inhibition of viral entry into cells after 48 hrs by single-cycle infection assay; format: functional, organism-based
[13] = molecular target: Envelope glycoprotein gp160 (Human immunodeficiency virus type 1 group M subtype B (isolate HXB2)(HIV-1)) (UniProt P04578); assay: Binding affinity to HIV-1 HXB2 gp41 N-terminal heptad repeat assessed as thermostability of protein-compound complex at 10 uM after 30 mins by CD spectroscopic analysis; conditions: Human immunodeficiency virus 1
[14] = molecular target: Envelope glycoprotein gp160 (Human immunodeficiency virus type 1 group M subtype B (isolate HXB2)(HIV-1), UniProt P04578); assay: Binding affinity to HIV-1 HXB2 gp41 N-terminal heptad repeat assessed as inhibition of 6-helix bundle formation after 30 mins by ELISA; set-up: species or system Human immunodeficiency virus 1
[15] = system: Human immunodeficiency virus 1; assay: Antiviral activity against ENF-resistant HIV1 NL4-3 harboring gp41 N-terminal heptad repeat D36G mutant infected in human TZM-bl cells assessed as inhibition of viral entry into cells after 48 hrs by single-cycle infection assay; format: functional, organism-based
[16] = system: Human immunodeficiency virus 1; assay: Ratio of IC50 for ENF-resistant HIV1 NL4-3 harboring gp41 N-terminal heptad repeat I37T/N43K double mutant to IC50 for wild type HIV1 NL4-3; format: functional
[17] = system: Human immunodeficiency virus 1; assay: Ratio of IC50 for ENF-resistant HIV1 NL4-3 harboring gp41 N-terminal heptad repeat N43K mutant to IC50 for wild type HIV1 NL4-3; format: functional
[18] = system: Human immunodeficiency virus 1; assay: Antiviral activity against ENF-resistant HIV1 NL4-3 harboring gp41 N-terminal heptad repeat V38A mutant infected in human TZM-bl cells assessed as inhibition of viral entry into cells after 48 hrs by single-cycle infection assay; format: functional, organism-based
[19] = Thermostability of the compound in PBS assessed as melting temperature at 20 uM by CD spectroscopic analysis; format: physicochemical; conditions: buffer
[20] = system: Envelope glycoprotein gp160 (Human immunodeficiency virus 1), Q72502 [V38A]; assay: Binding affinity to HIV1 NL4-3 gp41 N-terminal heptad repeat V38A mutant after 30 mins by CD spectroscopic analysis
[21] = system: Human immunodeficiency virus 1; assay: Antiviral activity against wild type HIV-1; format: functional, organism-based
[22] = molecular target: Envelope glycoprotein gp160 (Human immunodeficiency virus 1) (UniProt Q72502); assay: Binding affinity to HIV1 NL4-3 gp41 N-terminal heptad repeat I37T/N43K double mutant after 30 mins by CD spectroscopic analysis
[23] = system: Human immunodeficiency virus 1; assay: Antiviral activity against HIV-1 SC42261.8 pseudovirus infected in human TZM-bl cells assessed as inhibition of viral entry into cells after 48 hrs by single-cycle infection assay; format: functional, organism-based; conditions: Human immunodeficiency virus 1, SC42261.8, TZM-bl
[24] = molecular target: Envelope glycoprotein gp160 (Human immunodeficiency virus 1) (UniProt Q72502); assay: Binding affinity to HIV1 NL4-3 gp41 N-terminal heptad repeat N43K mutant after 30 mins by CD spectroscopic analysis
[25] = system: Human immunodeficiency virus 1; assay: Ratio of IC50 for ENF-resistant HIV1 NL4-3 harboring gp41 N-terminal heptad repeat V38A/N42T double mutant to IC50 for wild type HIV1 NL4-3; format: functional
[26] = system: Human immunodeficiency virus 1; assay: Antiviral activity against ENF-resistant HIV1 NL4-3 harboring gp41 N-terminal heptad repeat V38M mutant infected in human TZM-bl cells assessed as inhibition of viral entry into cells after 48 hrs by single-cycle infection assay; format: functional, organism-based
[27] = molecular target: Envelope glycoprotein gp160 (Human immunodeficiency virus 1) (UniProt Q72502); assay: Binding affinity to HIV1 NL4-3 gp41 N-terminal heptad repeat Q40H mutant after 30 mins by CD spectroscopic analysis
[28] = system: Human immunodeficiency virus 1; assay: Antiviral activity against wild type HIV1 NL4-3 infected in human TZM-bl cells assessed as inhibition of viral replication after 2 days by luciferase reporter gene assay; format: functional, organism-based; conditions: Human immunodeficiency virus 1, NL4-3, TZM-bl, 48 h
[29] = system: Human immunodeficiency virus 1; assay: Antiviral activity against ENF-resistant HIV1 NL4-3 harboring gp41 N-terminal heptad repeat V38A/N42T double mutant infected in human TZM-bl cells assessed as inhibition of viral entry into cells after 48 hrs by single-cycle infection assay; format: functional, organism-based
[30] = system: Human immunodeficiency virus 1; assay: Antiviral activity against HIV-1 SF162 pseudovirus infected in human TZM-bl cells assessed as inhibition of viral entry into cells after 48 hrs by single-cycle infection assay; format: functional, organism-based; conditions: Human immunodeficiency virus 1, SF162, TZM-bl
[31] = system: Human immunodeficiency virus 1; assay: Antiviral activity against HIV-1 pseudovirus harboring Q66R/N126K double mutant; format: functional, organism-based
[32] = system: Human immunodeficiency virus 1; assay: Antiviral activity against ENF-resistant HIV1 NL4-3 harboring gp41 N-terminal heptad repeat I37T mutant infected in human TZM-bl cells assessed as inhibition of viral entry into cells after 48 hrs by single-cycle infection assay; format: functional, organism-based
[33] = system: Human immunodeficiency virus 1; assay: Antiviral activity against HIV-1 ZM214M.15 pseudovirus infected in human TZM-bl cells assessed as inhibition of viral entry into cells after 48 hrs by single-cycle infection assay; format: functional, organism-based; conditions: Human immunodeficiency virus 1, ZM214M.15, TZM-bl
[34] = system: Human immunodeficiency virus 1; assay: Antiviral activity against ENF-resistant HIV1 NL4-3 harboring gp41 N-terminal heptad repeat Q40H mutant infected in human TZM-bl cells assessed as inhibition of viral entry into cells after 48 hrs by single-cycle infection assay; format: functional, organism-based
[35] = system: Human immunodeficiency virus 1; assay: Ratio of IC50 for ENF-resistant HIV1 NL4-3 harboring gp41 N-terminal heptad repeat D36S/V38M double mutant to IC50 for wild type HIV1 NL4-3; format: functional
[36] = system: Human immunodeficiency virus 1; assay: Antiviral activity against HIV1 NL4-3 pseudovirus infected in human TZM-bl cells assessed as inhibition of viral entry into cells after 48 hrs by single-cycle infection assay; format: functional, organism-based; conditions: Human immunodeficiency virus 1, NL4-3, TZM-bl
[37] = molecular target: Envelope glycoprotein gp160 (Human immunodeficiency virus type 1 group M subtype B (isolate HXB2)(HIV-1)) (UniProt P04578); assay: Binding affinity to HIV-1 HXB2 gp41 N-terminal heptad repeat assessed as thermostability of compound at 10 uM after 30 mins by CD spectroscopic analysis; conditions: Human immunodeficiency virus 1

**Q.** What does the source list for “H-WEAWDRAIAEYAARIEALIRAAQEQQEKNEAALREL-OH”?
**A.** Ratio IC50 [1]: 1.7; Ratio IC50 [2]: 1.8; Stability (Serum): Stable; Activity [3]: Active; Ratio IC50 [4]: 1.1; Activity [5]: Active; Activity [6]: Active; IC50 [7]: 1.1 nM; Ratio IC50 [8]: 1.6; IC50 [9]: 2.1 nM; IC50 [10]: 1 nM; Ratio IC50 [11]: 1.3; IC50 [12]: 1.9 nM; Tm [13]: 81.2 °C; IC50 [14]: 77.4 nM; IC50 [15]: 1.9 nM; Ratio IC50 [16]: 1.7; Ratio IC50 [17]: 1.9; IC50 [18]: 1.4 nM; Tm [19]: 46.1 °C; Activity [20]: Active; IC50 [21]: 1.34 nM; Activity [22]: Active; IC50 [23]: 1.67 nM; Activity [24]: Active; Ratio IC50 [25]: 0.6; IC50 [26]: 1.7 nM; Activity [27]: Active; IC50 [28]: 0.48 nM; IC50 [29]: 0.6 nM; IC50 [30]: 5.75 nM; IC50 [31]: 7 nM; IC50 [32]: 2 nM; IC50 [33]: 0.73 nM; IC50 [34]: 1.2 nM; Ratio IC50 [35]: 0.9; IC50 [36]: 1.07 nM

**Q.** Which results are given for H-TTWEEWDKKIEEYTKKIEELI-OH?
**A.** Tm [37]: 66.2 °C; IC50 [28]: 17.4 nM; IC50 [36]: 18.9 nM

**Q.** Which results are given for H-MTWEEWDKKIEEYTKKIEELI-OH?
**A.** Tm [37]: 76.2 °C; IC50 [28]: 3.13 nM; IC50 [36]: 4.26 nM

From ChEMBL document CHEMBL3600303, “The N-Terminal T-T Motif of a Third-Generation HIV-1 Fusion Inhibitor Is Not Required for Binding Affinity and Antiviral Activity” (J Med Chem, 2015)
